We go through 20 compounds from patent US20250179059A1 (The Regents of the University of California, priority 2021, published 2025).

Read-outs that look alike come from different tables or passages of the source.

Assay [1] addresses T1, human BRD4 bromodomain II (Homo sapiens, UniProt O60885).
T1 construct: human BRD4 bromodomain II [based on Genbank NM_058243, residues 349-460]; host or cells: E. coli
Description: Bromodomain binding assay (AlphaScreen), BRD4 BDII. In short, it runs like this: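 AlphaScreen competition with biotinylated H4 peptide (aa 1-21, K5/K8/K12/K16Ac), using nickel-chelate acceptor and streptavidin donor beads. Targets were His6-BRD4 BDI (44-170) or BDII (349-460), with a 30 min compound preincubation over a 10-point 3-fold series. IC50 was fitted from percentage peptide binding.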
For orientation: Bead proximity is the source of the signal in Alpha formats.

The subject of assay [2] is human SKM-1 acute myeloid leukemia cells. Description: SKM-1 antiproliferation cell-based assay (ATPlite). As to conditions: Homo sapiens. In short, it runs like this:
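Log-phase cells in RPMI 1640/15% FBS were seeded at 34722 cells/mL and exposed for 4 days to nine-concentration DMSO serial dilutions in triplicate. Viability was read as ATP luminescence (ATPlite 1step), and IC50 values came from variable-slope non-linear regression.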

Setting [3] is: BRD4 BDII AlphaScreen assay, read-out: BRD4 BD2 IC50.
[4] abbreviates: SKM-1, SKM-1 antiproliferation assay.
Where [5] appears, read: AlphaScreen assay, Table C2, read-out: BRD4 BDII IC50.
The mark [6] stands for this setting: SKM-1, 96 h, SKM-1 antiproliferation assay, 4 days, Table C2.

Broadly, the IC50 is the concentration at which inhibition is half-maximal. Usually GI50 stands for the concentration that inhibits growth by half. Higher therefore signals less potent growth inhibition. For the compound `CNc1ncc(-c2nc(C)cc(-c3ccc(-n4ccn(C)c4=O)c(Cl)c3)c2O)cc1N1CCC2(CCCN2C(C)C)C1` (stereo not shown) [Example 985, 1-(2-chloro-4-(3-hydroxy-5′-(1-isopropyl-1,7-diazaspiro[4.4]nonan-7-yl)-6-methyl-6′-(methylamino)-[2,3′-bipyridin]-4-yl)phenyl)-3-methyl-1H-imidazol-2(3H)-one], in assay [1] (setting [3]), the IC50 was in the range of 1 to 10 nM. In addition, in assay [2] (setting [4]), the GI50 was 0.3 to 30 nM.

For the compound `O=C1CCCN1c1ccc(-c2cc(Cl)cc(-c3ccnc(N4CCNCC4)c3)c2O)cc1F` [Example 269, 1-(5′-chloro-3-fluoro-2′-hydroxy-3′-(2-(piperazin-1-yl)pyridin-4-yl)-[1,1′-biphenyl]-4-yl)pyrrolidin-2-one], the IC50 in assay [1] (setting [5]) was 1 to 10 nM. The compound also displayed a GI50 in assay [2] (setting [6]) of 300 to 3000 nM.

As for `Cn1ccn(-c2ccc(-c3cc(F)cc(-c4ccnc(N5CCNC(C6CC6)C5)c4)c3O)cc2Cl)c1=O` (stereo not drawn) [Example 643, 1-(3-chloro-3′-(2-(3-cyclopropylpiperazin-l-yl)pyridin-4-yl)-5′-fluoro-2′-hydroxy-[1,1′-biphenyl]-4-yl)-3-methyl-1H-imidazol-2(3H)-one], the IC50 in assay [1] (setting [5]) fell in the range of 0.01 to 1 nM. Further, the GI50 in assay [2] (setting [6]) lay within 30 to 300 nM.

`Cn1ccn(-c2ccc(-c3cc(F)cc(-c4ccnc(N5CCNCC5=O)c4)c3O)cc2Cl)c1=O` [Example 463, 1-(4-(3′-chloro-5-fluoro-2-hydroxy-4′-(3-methyl-2-oxo-2,3-dihydro-1H-imidazol-1-yl)-[1,1′-biphenyl]-3-yl)pyridin-2-yl)piperazin-2-one]: the IC50 in assay [1] (setting [5]) is 0.01 to 1 nM. Moreover, the GI50 in assay [2] (setting [6]) lay within 30 to 300 nM.

As for `Cn1ccn(-c2ccc(-c3cc(F)cc(-c4ccnc(N5CCCC6(CCCN6)C5)c4)c3O)cc2Cl)c1=O` (stereo not shown) [Example 694, 1-(3′-(2-(1,7-diazaspiro[4.5]decan-7-yl)pyridin-4-yl)-3-chloro-5′-fluoro-2′-hydroxy-[1,1′-biphenyl]-4-yl)-3-methyl-1H-imidazol-2(3H)-one], the IC50 in assay [1] (setting [5]) was in the range of 1 to 10 nM. The compound further displayed a GI50 in assay [2] (setting [6]) of 0.3 to 30 nM.

As to `Cn1ccn(-c2ccc(-c3cc(F)cc(-c4ccnc(N5CCCN(C(C)(C)C)CC5)c4)c3O)cc2Cl)c1=O` [Example 840, 1-(3′-(2-(4-(tert-butyl)-1,4-diazepan-1-yl)pyridin-4-yl)-3-chloro-5′-fluoro-2′-hydroxy-[1,1′-biphenyl]-4-yl)-3-methyl-1H-imidazol-2(3H)-one], in assay [1] (setting [5]), the IC50 is 0.01 to 1 nM. Further, in assay [2] (setting [6]), the GI50 lay within 0.3 to 30 nM.

Turning to `Cn1ccn(-c2ccc(-c3cc(F)cc(-c4ccnc(N5CCC(O)(C6CC6)C5)c4)c3O)cc2Cl)c1=O` (stereo not shown) [Example 718, 1-(3-chloro-3′-(2-(3-cyclopropyl-3-hydroxypyrrolidin-1-yl)pyridin-4-yl)-5′-fluoro-2′-hydroxy-[1,1′-biphenyl]-4-yl)-3-methyl-1H-imidazol-2(3H)-one], the IC50 in assay [1] (setting [5]) fell in the range of 0.01 to 1 nM. In assay [2] (setting [6]), this compound gave a GI50 of 0.3 to 30 nM.

`O=C1CCCCN1c1ccc(-c2cccc(-c3ccnc(N4CCNCC4)c3)c2O)cc1F` [Example 263, 1-(3-fluoro-2′-hydroxy-3′-(2-(piperazin-1-yl)pyridin-4-yl)-[1,1′-biphenyl]-4-yl)piperidin-2-one]: in assay [1] (setting [5]), the IC50 lay in the range of 10 to 100 nM. The GI50 in assay [2] (setting [6]) fell in the range of 300 to 3000 nM.

As for `O=C1NCCN1c1ccc(-c2cc(F)cc(-c3ccnc(N4CCNCC4)c3)c2O)cc1Cl` [Example 373, 1-(3-chloro-5′-fluoro-2′-hydroxy-3′-(2-(piperazin-1-yl)pyridin-4-yl)-[1,1′-biphenyl]-4-yl)imidazolidin-2-one], in assay [1] (setting [5]), the IC50 lay in the range of 10 to 100 nM. The same compound had a GI50 in assay [2] (setting [6]) of 300 to 3000 nM.

Consider `CC(=O)Nc1ccc(-c2cccc(-c3cc(C)nc(N4CCNCC4)c3)c2O)cc1F` [Example 244, N-(3-fluoro-2′-hydroxy-3′-(2-methyl-6-(piperazin-1-yl)pyridin-4-yl)-[1,1′-biphenyl]-4-yl)acetamide], for which the IC50 in assay [1] (setting [5]) lay in the range of 1 to 10 nM. Besides, the GI50 in assay [2] (setting [6]) fell in the range of 30 to 300 nM.

Take `Cc1ncc(-c2cc(F)cc(-c3ccc(-n4ccn(C)c4=O)c(Cl)c3)c2O)cc1N1CC2(CC2)[C@](C)(O)C1` [Example 873]: in assay [1] (setting [3]), the IC50 was 0.01 to 1 nM. Further, the GI50 in assay [2] (setting [4]) is 0.3 to 30 nM.

In the case of `CC(=O)Nc1ccc(-c2cc(F)cc(-c3cccc(N4CCN(C(C)(C)C)CC4)c3)c2O)nn1` [Example 896], the IC50 in assay [1] (setting [3]) was above 100 nM. In assay [2] (setting [4]), this compound came in with a GI50 of 300 to 3000 nM.

Regarding `CC(C)N1[C@H](C)CN(c2cccc(-c3cc(F)cc(-c4ccc(-n5ccn(C)c5=O)c(Cl)c4)c3O)c2)C[C@@H]1C` [Example 906, 1-(3-chloro-5′-fluoro-2′-hydroxy-3″-((3R,5S)-4-isopropyl-3,5-dimethylpiperazin-1-yl)-[1,1′:3′,1″-terphenyl]-4-yl)-3-methyl-1H-imidazol-2(3H)-one], in assay [1] (setting [3]), the IC50 fell in the range of 0.01 to 1 nM. For the same compound, the GI50 in assay [2] (setting [4]) lay in the range of 0.3 to 30 nM.

With `Cn1ccn(-c2c(F)cc(-c3cc(F)cc(-c4ccnc(N5CCNCC5)c4)c3O)cc2Cl)c1=O` [Example 436, 1-(3-chloro-5,5′-difluoro-2′-hydroxy-3′-(2-(piperazin-1-yl)pyridin-4-yl)-[1,1′-biphenyl]-4-yl)-^3-methyl-1H-imidazol-2(3H)-one], the IC50 in assay [1] (setting [5]) is 1 to 10 nM. For the same compound, in assay [2] (setting [6]), the GI50 is 30 to 300 nM.

As to `Cn1ccn(-c2ccc(-c3cc(F)cc(-c4cccc(-c5ccc(CO)cc5)c4)c3O)cc2Cl)c1=O` [Example 858], in assay [1] (setting [3]), the concentration for half-maximal inhibition (IC50) fell in the range of 10 to 100 nM. In assay [2] (setting [4]), this compound displayed a GI50 of 300 to 3000 nM.

For the compound `Cn1ccn(-c2ccc(-c3cc(F)cc(-c4ccnc(N5CCCC(C)(O)C5)c4)c3O)cc2Cl)c1=O` (stereo not shown) [Example 714, 1-(3-chloro-5′-fluoro-2′-hydroxy-3′-(2-(3-hydroxy-3-methylpiperidin-1-yl)pyridin-4-yl)-[1,1′-biphenyl]-4-yl)-3-methyl-1H-imidazol-2(3H)-one], the IC50 in assay [1] (setting [5]) is 0.01 to 1 nM. The compound further registered a GI50 in assay [2] (setting [6]) of 30 to 300 nM.

`CN1CCN(c2ccc(-c3cc(F)cc(-c4cc(N5CCNCC5)c5[nH]ncc5c4)c3O)cc2Cl)C1=O` [Example 424, 1-(3-chloro-5′-fluoro-2′-hydroxy-3′-(7-(piperazin-1-yl)-1H-indazol-5-yl)-[1,1′-biphenyl]-4-yl)-3-methylimidazolidin-2-one]: in assay [1] (setting [5]), the 50% inhibitory concentration (IC50) is 0.01 to 1 nM. Also, the GI50 in assay [2] (setting [6]) lay in the range of 30 to 300 nM.

`COc1ncc(-c2nc(C)cc(-c3ccc(-n4ccn(C)c4=O)c(Cl)c3)c2O)cc1N1CCN(C(C)(C)C)CC1` [Example 959, 1-(4-(5′-(4-(tert-butyl)piperazin-1-yl)-3-hydroxy-6′-methoxy-6-methyl-[2,3′-bipyridin]-4-yl)-2-chlorophenyl)-3-methyl-1,3-dihydro-2H-imidazol-2-one]: in assay [1] (setting [3]), the IC50 was in the range of 1 to 10 nM. The compound further came in with a GI50 in assay [2] (setting [4]) of 0.3 to 30 nM.

For the compound `CC(=O)Nc1ccc(-c2cccc(-c3ccnc(N4CCN[C@H](C)C4)c3)c2O)cc1F` [Example 255, (R)-N-(3-fluoro-2′-hydroxy-3'-(2-(3-methylpiperazin-1-yl)pyridin-4-yl)-[1,1′-biphenyl]-4-yl)acetamide], in assay [1] (setting [5]), the IC50 fell in the range of 1 to 10 nM. The compound also displayed a GI50 in assay [2] (setting [6]) of 30 to 300 nM.

With `CN1CCOC2CN(c3cc(-c4cc(F)cc(-c5ccc(-n6ccn(C)c6=O)c(Cl)c5)c4O)ccn3)CC21` (stereo not shown) [Example 649, 1-(3-chloro-5′-fluoro-2′-hydroxy-3′-(2-(4-methylhexahydropyrrolo[3,4-b][1,4]oxazin-6(2H)-yl)pyridin-4-yl)-[1,1′-biphenyl]-4-yl)-3-methyl-1H-imidazol-2(3H)-one], in assay [1] (setting [5]), the IC50 is 1 to 10 nM. The GI50 in assay [2] (setting [6]) lay within 30 to 300 nM.
